Reference: patent US8252814B2, “Agents and crystals for improving excretory potency of urinary bladder” (priority 1998, dated 2012)

Target: T1, human erythrocyte-derived acetylcholine esterase (Homo sapiens, UniProt P22303)
T1 construct: Acetylcholinesterase of human erythrocyte origin (Sigma Chemical Co.); purchased Sigma Chemical Co; host or cells: human erythrocytes (natural source)
Experiment: Determination of the activity to inhibit the acetylcholine esterase of the crystals (Ellman method), Experimental Example 5
Type: biochemical
Conditions: at least three experiments
Description: The activity to inhibit the acetylcholine esterase of the crystals obtained in Example 1 was determined according to the acetylthiocholine method (the Ellman method) by the use of a human erythrocyte-derived acetylcholine esterase.
A human erythrocyte-derived acetylcholine esterase (Sigma Chemical Company) was dissolved into distilled water to obtain a standard enzyme preparation with an enzyme concentration of 0.2 IU/mL. […]
The activity to inhibit the acetylcholine esterase of the crystals obtained in Example 1 was determined according to the acetylthiocholine method (the ElIman method) by the use of a human erythrocyte-derived acetylcholine esterase.
A human erythrocyte-derived acetylcholine esterase (Sigma Chemical Company) was dissolved into distilled water to obtain a standard enzyme preparation with an enzyme concentration of 0.2 IU/mL. […] As soon as 50 μl of a 4-mM solution of acetylthiocholine iodide (Sigma Chemical Company) was added and shaking was started again, every increment in absorbance at the wavelength of 414 nm at an interval of 30 seconds was determined for 10 minutes. R=5.74×10^−7×ΔA (wherein R indicates an enzyme activity (mol) and ΔA indicates an increment in absorbance at the wavelength of 414 nm). […] Furthermore, the activity to inhibit the acetylcholine esterase of distigmine was determined in a manner similar to that described in the above method.

T1 sequence (P22303 32-617 isoform P22303-2 limits assumed): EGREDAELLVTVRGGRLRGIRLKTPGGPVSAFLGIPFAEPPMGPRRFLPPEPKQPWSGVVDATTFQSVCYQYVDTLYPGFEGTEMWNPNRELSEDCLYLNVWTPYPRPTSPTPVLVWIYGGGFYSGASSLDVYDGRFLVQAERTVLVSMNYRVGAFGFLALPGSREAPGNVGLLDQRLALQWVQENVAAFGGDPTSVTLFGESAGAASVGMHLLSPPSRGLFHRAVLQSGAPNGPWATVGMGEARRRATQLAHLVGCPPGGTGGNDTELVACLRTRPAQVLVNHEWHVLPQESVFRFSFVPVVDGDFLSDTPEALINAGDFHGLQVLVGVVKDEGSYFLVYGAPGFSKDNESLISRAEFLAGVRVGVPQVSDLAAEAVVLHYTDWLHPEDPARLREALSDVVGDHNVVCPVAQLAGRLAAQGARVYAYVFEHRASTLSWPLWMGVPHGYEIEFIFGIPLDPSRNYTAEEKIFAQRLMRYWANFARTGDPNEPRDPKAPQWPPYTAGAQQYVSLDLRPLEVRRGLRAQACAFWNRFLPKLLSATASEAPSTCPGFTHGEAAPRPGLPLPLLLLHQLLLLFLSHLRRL

Question: How did the IC50 turn out when `CN(CCCCCCN(C)C(=O)Oc1ccc[n+](C)c1)C(=O)Oc1ccc[n+](C)c1` [Distigmine, reference compound] was run?
Answer: The IC50 was 652 nM.
